Results taken from patent US12458621B1, “Application of genipin beta-methyl derivative gen-17 in preparation of drug for prevention and treatment of acute severe pneumonia” (KUNMING MEDICAL UNIVERSITY, priority 2024, dated 2025).

How the values were obtained:
Format in all cases: in vivo, Kunming mice
LPS-induced ALI mice = experiment: Total protein concentration in BALF by BCA; conditions: compared with LPS group (P<0.05)
Experimental: (§1) A total of 144 SPF-grade healthy Kunming mice, aged 5-7 weeks and weighing 18-22 g, are weighed and randomly allocated into six experimental groups: control group (NS), model group (LPS), dexamethasone group (DEX, […] per kilogram abbreviated as mg/kg), genipin beta-methyl derivative low-dose group (12.5 mg/kg), genipin beta-methyl derivative medium-dose group (25 mg/kg), and genipin beta-methyl derivative high-dose group (50 mg/kg), 24 animals per group, in which 12 animals are used to take lung tissue for the detection of other indicators, and another 12 animals are used to collect BALF.
All mice are gavaged with a same volume of 0.9% normal saline once a day in the NS group and the LPS group, DEX solution (0.39 mg/kg) is gavaged once a day in the DEX group, low-dose Gen-17 solution (12.5 mg/kg) is gavaged once a day in the medium-dose Gen-17 group, medium-dose Gen-17 solution (25 mg/kg) is gavaged once a day in the high-dose Gen-17 group, and high-dose Gen-17 solution (50 mg/kg) is gavaged once a day in the high-dose Gen-17 group. The dosage is converted according to the weight of the mice, and the gavage volume is 20 milliliters per kilogram (mL/kg), and the gavage is continued for 3 days. One hour after the gavage on the third day, the ALI model is established by tracheal instillation of LPS solution. The specific experimental procedures are as follows. • (1) Before the operation, the mice are anesthetized by intraperitoneal injection of 1% sodium pentobarbital (30 mg/kg) according to their body weight. • (2) Limbs of anesthetized mice are fixed with rubber bands, teeth are wired with thin threads, and neck skin is disinfected with 75% alcohol. • (3) A subcutaneous tissue is separated along a longitudinal incision in a middle of the mouse neck until a cartilage ring appeared in an exposed trachea. • (4) A microinjector is inserted into the trachea in parallel towards a proximal end for about 1 centimeter (cm). […]

IL-6 = IL-6 mRNA in lung tissue by qRT-PCR
Experimental: as §1, with “BALF. […]” for “BALF.”
(§2) Samples are collected 24 hours after the animal model is established. […] Lung tissues are collected and the whole lung wet weight is measured. […] After tidying, the lungs are photographed, excess tissues such as the trachea are cleared away, and the wet weight of the whole lung is measured to calculate the lung index. • (3) The upper lobe of the left lung is fixed in 4% neutral paraformaldehyde, fixed for 24 hours, paraffin-embedded and sectioned for HE staining. • (4) The remaining lung tissues are put into centrifugal tubes separately, quickly frozen in liquid nitrogen, and then stored at −80° C. after the experiment, which is used for the detection of MDA, SOD, western blotting (WB) and reverse transcription polymerase chain reaction (RT-PCR). […]

iNOS = iNOS mRNA in lung tissue by qRT-PCR; conditions: Gen-17 (12.5, 25, 50 mg/kg gavage) compared with LPS group (P<0.001)
Experimental: as §1, with “BALF. […]” for “BALF.”
as §2

[1] = system: ERK phosphorylated protein; experiment: ERK phosphorylated protein in lung tissue by WB
Experimental: as §1, with “BALF. […]” for “BALF.”
as §2

[2] = system: JNK phosphorylated protein; experiment: JNK phosphorylated protein in lung tissue by WB
Experimental: as §1, with “BALF. […]” for “BALF.”
as §2

MDA = MDA content in lung tissue; conditions: after drug treatment, compared with LPS group
Experimental: as §1, with “BALF. […]” for “BALF.”
as §2

HO-1 [3] = experiment: HO-1 gene expression in lung tissue by qRT-PCR
Experimental: as §1, with “BALF. […]” for “BALF.”
as §2

Keap1 = Keap1 protein in lung tissue by WB
Experimental: (§3) The dosage is converted according to the weight of the mice, and the gavage volume is 20 milliliters per kilogram (mL/kg), and the gavage is continued for 3 days. One hour after the gavage on the third day, the ALI model is established by tracheal instillation of LPS solution. […] After the mice are awake, they are raised as usual. 2.3 Treatment of Experimental Animals and Collection of Lung Tissue Specimens
(§4) Samples are collected 24 hours after the animal model is established. The mice are weighed and 12 mice in each group are sacrificed. Lung tissues are collected and the whole lung wet weight is measured. […] After tidying, the lungs are photographed, excess tissues such as the trachea are cleared away, and the wet weight of the whole lung is measured to calculate the lung index. • (3) The upper lobe of the left lung is fixed in 4% neutral paraformaldehyde, fixed for 24 hours, paraffin-embedded and sectioned for HE staining. • (4) The remaining lung tissues are put into centrifugal tubes separately, quickly frozen in liquid nitrogen, and then stored at −80° C. after the experiment, which is used for the detection of MDA, SOD, western blotting (WB) and reverse transcription polymerase chain reaction (RT-PCR). […]
(§5) The lung tissue is taken out from −80° C., and its weight is accurately measured. […]

Nrf2 = Nrf2 protein in lung tissue by WB
Experimental: as §3, §4, §5

HO-1 [4] = experiment: HO-1 protein in lung tissue by WB; conditions: Gen-17 12.5, 25, 50 mg/kg gavage, ALI mice
Experimental: as §1, with “BALF. […]” for “BALF.”
as §2

[5] = after drug treatment, compared with LPS group
[6] = low-dose Gen-17 12.5 mg/kg gavage, compared with DEX group
[7] = Gen-17 12.5, 25, 50 mg/kg gavage, ALI mice

SMILES: COC(=O)C1=CO[C@@H](OC)[C@@H]2C(COC(=O)c3cccc(Br)c3)=CC[C@H]12 [Gen-17, genipin beta-methyl derivative]
- total protein content in BALF (LPS-induced ALI mice; high-dose Gen-17 50 mg/kg gavage): significantly reduced
- total protein content in BALF (LPS-induced ALI mice; low-dose Gen-17 12.5 mg/kg gavage): significantly reduced
- total protein content in BALF (LPS-induced ALI mice; middle-dose Gen-17 25 mg/kg gavage): significantly reduced
- mRNA expression of IL-6 in lung tissue (IL-6; Gen-17 (12.5, 25, 50 mg/kg gavage) compared with LPS group (P<0.001)): significantly reduce the expression
- mRNA expression of IL-6 in lung tissue (IL-6; low-dose Gen-17 12.5 mg/kg gavage, compared with DEX group (P<0.001)): statistical significance
- mRNA expression of iNOS in lung tissue (iNOS): significantly reduce the expression
- expression of ERK phosphorylated protein in lung tissue [1, 5]: down-regulate the expression of p38, ERK and JNK proteins
- expression of ERK phosphorylated protein in lung tissue [1, 6]: statistically significant (P<0.05)
- expression of JNK phosphorylated protein in lung tissue [2, 5]: down-regulate the expression of p38, ERK and JNK proteins
- expression of JNK phosphorylated protein in lung tissue [2, 6]: statistically significant (P<0.05)
- MDA content in the lung tissue homogenate (MDA): reduce the MDA content
- expression of HO-1 gene in lung tissue (HO-1 [3]; Gen-17 compared with DEX group (P<0.001)): statistically significant in upregulating the expression of HO-1 gene
- expression of HO-1 gene in lung tissue (HO-1 [3]; Gen-17 group compared with NS group): significantly decreased (P<0.001)
- expression of Keap1 protein in lung tissue, overall result (Keap1; [7]): downregulate the expression of Keap1 protein
- expression of Keap1 protein in lung tissue (decrease) (Keap1; high-dose Gen-17 50 mg/kg gavage, compared with LPS group): statistically significant (P<0.001)
- expression of Nrf2 protein in lung tissue, overall result (Nrf2; [7]): upregulate the expression of Nrf2 and HO-1 protein
- expression of Nrf2 protein in lung tissue (increase) (Nrf2; medium-dose Gen-17 25 mg/kg gavage, compared with LPS group (P<0.05)): statistically significant
- expression of HO-1 protein in lung tissue, overall result (HO-1 [4]): upregulate the expression of Nrf2 and HO-1 protein
